# In PMC6149814, “Enhanced Intestinal Permeability of Bufalin by a Novel Bufalin-Peptide-Dendrimer Inclusion through Caco-2 Cell Monolayer” (Molecules : A Journal of Synthetic Chemistry and Natural …, 2017):
# Legend:
# [1] = Cytotoxicity in Caco-2 cells by MTT assay; assay type: cell-based; details: human
# Experimental: The viability of Caco-2 cells were measured after treated for 180 min with Hanks’ balanced salts solution (HBSS) (negative control), paclitaxel (positive control, 25, 50, 75 and 100 μM), BFL (50, 75, 100 and 125 μM) and BPDI (containing BFL 50, 75, 100 and 125 μM), respectively.
# The cytotoxicities of free BFL and its formulation, BPDI against Caco-2 cells were tested using the 3-(4,5-dimethylthiazol-2-yl)-2,5-diphenyltetrazolium bromide (MTT) assay. Caco-2 cells at the logarithmic growth were seeded in 96-well plate at the concentration of […] and incubated in an atmosphere of 5% CO2 and 90% relative humidity at 37 °C for three days. After cells attachment, HBSS solution (negative control), paclitaxel (positive control, 25, 50, 75, and 100 μM), BFL (50, 75, 100, and 125 μM), and BPDI (containing BFL 50, 75, 100, and 125 μM) solutions were added into each well, respectively. After cells were treated for three hours, HBSS solution was removed, and cells were rinsed with PBS and incubated with 20 μL of MTT solution (0.5 mg/mL) for 4 h at 37°C and 5% CO2. Then the cells were shaken with 200 μL of DMSO for 10 min, and the absorbance was read on the microplate reader (SPECTROstar Omega, BMG LabTech GmbH, Ortenberg, Germany) at 570 nm. The viability rates were calculated by the equation: % = A/A0 × 100, wherein A was the average absorbance value of treatment group, and A0 was the average absorbance value of negative control group.
# in vitro = details: human
# Experimental: (§1) Caco-2 cells (4.0 × 10^5 per mL) at the logarithmic growth were seeded into the AP (apical) side of a 24-well Transwell™ plates (Corning Inc., Cambridge, MA, USA). DMEM solution was added into the apical (AP) side (0.5 mL) and basal (BL) side (1.0 mL) of the chamber, respectively. The cell culture was maintained at 37 °C under 90% humidity and 5% CO2. The medium was refreshed every two days in the first week, and then on every day the following week. […] The cell inserts were considered as qualified for trans-membrane transport evaluation only if the resistance reached above […].
# (§2) On day 21, the culture medium was removed from the AP and BL sides of the trans-well filters. The Caco-2 monolayers were rinsed twice with pre-warmed HBSS (37 °C) and incubated for 20 min. Then HBSS was removed completely. The test solution of BFL or BPDI (was added to AP (0.4 mL) or BL side (3.2 mL), and then same volume of HBSS was added to the corresponding sides (BL or AP sides). Incubation continued at 37 °C for 180 min. To evaluate the permeability of test compounds across the cell monolayer, solutions from BL (0.4 mL) or AP (3.2 mL) side were collected at different time intervals (60, 120, and 180 min), and replaced with the same volume of HBSS. The collected solutions were lyophilized and stored under −80 °C before HPLC analysis. Experiments for each time point were repeated three times and were performed on the independent chamber.
# (§3) Chromatographic analysis was performed using a Alltima TM C18 column (4.6× 250 mm, 5 μm) on an Agilent 1200 liquid chromatography system, equipped with a quaternary solvent delivery system, an auto-sampler and a DAD detector. The isocratic eluting solution consists of A: 0.2% phosphoric acid and B: acetonitrile (54:46, v/v); the detection wavelength and flow rate were set at 226 nm and 1.0 mL/min, respectively. The HPLC analysis will be run for 25 min.
# (§4) Apparent permeability values (Papp) for the test compound was calculated according to the equation [22] Papp = (dQ/dt)/(AC0) where Papp is the apparent permeability (cm/s), dQ/dt is the appearance rate of the test compound on the receiver side (μg/s), A represents the surface area of carbon ester membrane (cm^2), and C0 is the initial concentration of compounds on the given sides (μg/L).
# Caco-2 cell monolayer = test: in vitro
# Experimental: as §1, §2, §3, §4
smiles,measurement,setting,value
"CC(=O)O[C@H]1C(=O)[C@@]2(C)[C@H]([C@H](OC(=O)c3ccccc3)[C@]3(O)C[C@H](OC(=O)[C@H](O)[C@@H](NC(=O)c4ccccc4)c4ccccc4)C(C)=C1C3(C)C)[C@]1(OC(C)=O)CO[C@@H]1C[C@@H]2O [Paclitaxel, paclitaxel]",viability at 25 µM,"[1]; Caco-2 cells, 25 μM, 180 min, MTT",65.3 ± 7.2%
same,viability,"[1]; Caco-2 cells, 50 μM (BPDI: containing BFL 50 μM), 180 min, MTT",43.5 ± 5.4%
same,viability,"[1]; Caco-2 cells, 75 μM (BPDI: containing BFL 75 μM), 180 min, MTT",34.8 ± 3.2%
same,viability,"[1]; Caco-2 cells, 100 μM (BPDI: containing BFL 100 μM), 180 min, MTT",30.5 ± 2.6%
"C[C@]12CC[C@H](O)C[C@H]1CC[C@@H]1[C@@H]2CC[C@]2(C)[C@@H](c3ccc(=O)oc3)CC[C@]12O [BFL, Bufalin]","viability at 180 min, 50 μM","[1]; Caco-2 cells, 50 μM (BPDI: containing BFL 50 μM), MTT",102 ± 7.2%
same,"viability at 180 min, 75 μM","[1]; Caco-2 cells, 75 μM (BPDI: containing BFL 75 μM), MTT",100 ± 8.6%
same,"viability at 180 min, 100 μM","[1]; Caco-2 cells, 100 μM (BPDI: containing BFL 100 μM), MTT",99.1 ± 8.5%
same,"viability at 180 min, 125 μM","[1]; Caco-2 cells, 125 μM (BPDI: containing BFL 125 μM), MTT",98.9 ± 6.4%
same,viability at 180 min,"[1]; Caco-2 cells, 50, 75, 100 and 125 μM, read-out: viabilities after treatment",> 95%
same,"Papp A→B at 120 min, 50 μM","in vitro; Caco-2, Papp AP→BL, 50 μM, 120 min, concentration series (Table 2), n = 3",1.58 ± 0.32 ×10⁻⁶ cm/s
same,"Papp A→B at 60 min, 75 μM","in vitro; Caco-2, Papp AP→BL, 75 μM, 60 min, time course (Table 3), n = 3",1.52 ± 0.22 ×10⁻⁶ cm/s
same,"Papp A→B at 120 min, 75 μM","in vitro; Caco-2, Papp AP→BL, 75 μM, 120 min, concentration series (Table 2), n = 3",1.47 ± 0.08 ×10⁻⁶ cm/s
same,"Papp A→B at 120 min, 75 μM","in vitro; Caco-2, Papp AP→BL, 75 μM, 120 min, time course (Table 3), n = 3",1.36 ± 0.08 ×10⁻⁶ cm/s
same,"Papp A→B at 180 min, 75 μM","in vitro; Caco-2, Papp AP→BL, 75 μM, 180 min, time course (Table 3), n = 3",1.28 ± 0.02 ×10⁻⁶ cm/s
same,"Papp A→B at 120 min, 100 μM","in vitro; Caco-2, Papp AP→BL, 100 μM, 120 min, concentration series (Table 2), n = 3",1.46 ± 0.02 ×10⁻⁶ cm/s
same,"Papp A→B at 120 min, 125 μM","in vitro; Caco-2, Papp AP→BL, 125 μM, 120 min, concentration series (Table 2), n = 3",1.64 ± 0.12 ×10⁻⁶ cm/s
same,"Papp B→A at 120 min, 50 μM","in vitro; Caco-2, Papp BL→AP, 50 μM, 120 min, concentration series (Table 2), n = 3",1.37 ± 0.18 ×10⁻⁶ cm/s
same,"Papp B→A at 60 min, 75 μM","in vitro; Caco-2, Papp BL→AP, 75 μM, 60 min, time course (Table 3), n = 3",1.14 ± 0.28 ×10⁻⁶ cm/s
same,"Papp B→A at 120 min, 75 μM","in vitro; Caco-2, Papp BL→AP, 75 μM, 120 min, concentration series (Table 2), n = 3",1.32 ± 0.14 ×10⁻⁶ cm/s
same,"Papp B→A at 120 min, 75 μM","in vitro; Caco-2, Papp BL→AP, 75 μM, 120 min, time course (Table 3), n = 3",1.08 ± 0.17 ×10⁻⁶ cm/s
same,"Papp B→A at 180 min, 75 μM","in vitro; Caco-2, Papp BL→AP, 75 μM, 180 min, time course (Table 3), n = 3",0.99 ± 0.12 ×10⁻⁶ cm/s
same,"Papp B→A at 120 min, 100 μM","in vitro; Caco-2, Papp BL→AP, 100 μM, 120 min, concentration series (Table 2), n = 3",1.29 ± 0.1 ×10⁻⁶ cm/s
same,"Papp B→A at 120 min, 125 μM","in vitro; Caco-2, Papp BL→AP, 125 μM, 120 min, concentration series (Table 2), n = 3",1.35 ± 0.45 ×10⁻⁶ cm/s
same,Papp,"in vitro; Caco-2, Papp value (range over concentrations/times, text), summary of Table 2 and Table 3",1.46 to 1.62 ×10⁻⁶ cm/s
same,Papp,"in vitro; Caco-2, apparent permeability coefficient (Papp) values (abstract), BFL in free or BPDI form",> 1 ×10⁻⁶ cm/s
same,main transport mechanism,Caco-2 cell monolayer; Caco-2 monolayer,passive diffusion
same,transport classification,Caco-2 cell monolayer; due to a Papp value of 1–10 × 10^−6 cm/s,moderate transport
